Measured values taken from ChEMBL document CHEMBL1201862, “PubChem BioAssay data set” (2004).
The source made the active and inactive calls.

What was measured:
[1] = target: T1, Sentrin-specific protease 6 (Homo sapiens, UniProt Q9GZR1); type: functional;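 note: Luminescence-based dose-response confirmatory assay of SENP6 inhibition, following up an ultra-high-throughput screen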
T1 sequence (Q9GZR1 whole entry): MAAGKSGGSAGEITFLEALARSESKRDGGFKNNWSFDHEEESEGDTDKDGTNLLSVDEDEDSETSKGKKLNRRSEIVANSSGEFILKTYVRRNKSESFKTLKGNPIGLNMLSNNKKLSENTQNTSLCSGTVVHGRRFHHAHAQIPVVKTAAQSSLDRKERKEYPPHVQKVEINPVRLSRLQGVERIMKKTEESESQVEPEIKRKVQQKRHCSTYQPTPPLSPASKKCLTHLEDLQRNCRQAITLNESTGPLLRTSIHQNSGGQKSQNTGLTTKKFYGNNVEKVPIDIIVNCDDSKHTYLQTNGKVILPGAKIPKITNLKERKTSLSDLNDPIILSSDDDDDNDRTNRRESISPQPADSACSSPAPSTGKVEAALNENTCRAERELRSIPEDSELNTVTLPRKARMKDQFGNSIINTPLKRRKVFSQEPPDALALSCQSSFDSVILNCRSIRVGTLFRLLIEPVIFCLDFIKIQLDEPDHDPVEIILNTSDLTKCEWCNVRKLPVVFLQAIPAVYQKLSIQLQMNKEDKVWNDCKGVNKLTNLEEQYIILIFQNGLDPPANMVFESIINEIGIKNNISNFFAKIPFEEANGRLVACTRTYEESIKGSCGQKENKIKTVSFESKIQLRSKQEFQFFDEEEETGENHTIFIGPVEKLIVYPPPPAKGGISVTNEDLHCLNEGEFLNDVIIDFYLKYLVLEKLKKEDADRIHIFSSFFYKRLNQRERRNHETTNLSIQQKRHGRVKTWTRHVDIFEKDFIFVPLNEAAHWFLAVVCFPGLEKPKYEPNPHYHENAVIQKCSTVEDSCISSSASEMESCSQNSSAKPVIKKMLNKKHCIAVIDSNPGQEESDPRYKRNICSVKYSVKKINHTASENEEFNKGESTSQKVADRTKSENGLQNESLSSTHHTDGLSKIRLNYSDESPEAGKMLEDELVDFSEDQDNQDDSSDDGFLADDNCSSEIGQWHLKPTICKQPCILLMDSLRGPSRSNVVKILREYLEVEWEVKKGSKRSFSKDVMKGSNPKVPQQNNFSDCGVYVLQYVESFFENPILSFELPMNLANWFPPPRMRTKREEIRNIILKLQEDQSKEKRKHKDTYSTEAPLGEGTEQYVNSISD

[2] = target: T2, Sentrin-specific protease 8 (Homo sapiens, UniProt Q96LD8); type: functional;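 note: luminescence read-out of SENP8 inhibition, dose-response confirmation following an ultra-high-throughput screen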
T2 sequence (Q96LD8 whole entry): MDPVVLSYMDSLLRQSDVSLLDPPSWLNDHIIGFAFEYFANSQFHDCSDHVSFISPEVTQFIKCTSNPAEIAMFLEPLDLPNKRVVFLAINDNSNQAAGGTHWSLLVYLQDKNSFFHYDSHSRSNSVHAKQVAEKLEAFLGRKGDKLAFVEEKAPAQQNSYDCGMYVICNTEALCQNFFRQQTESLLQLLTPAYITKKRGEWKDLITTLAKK

[3] = target: T3, Sentrin-specific protease 7 (Homo sapiens, UniProt Q9BQF6); type: functional;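 note: Luminescence-based dose-response confirmation of ultra-high-throughput screening hits, measuring inhibition of SENP7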
T3 sequence (Q9BQF6 whole entry): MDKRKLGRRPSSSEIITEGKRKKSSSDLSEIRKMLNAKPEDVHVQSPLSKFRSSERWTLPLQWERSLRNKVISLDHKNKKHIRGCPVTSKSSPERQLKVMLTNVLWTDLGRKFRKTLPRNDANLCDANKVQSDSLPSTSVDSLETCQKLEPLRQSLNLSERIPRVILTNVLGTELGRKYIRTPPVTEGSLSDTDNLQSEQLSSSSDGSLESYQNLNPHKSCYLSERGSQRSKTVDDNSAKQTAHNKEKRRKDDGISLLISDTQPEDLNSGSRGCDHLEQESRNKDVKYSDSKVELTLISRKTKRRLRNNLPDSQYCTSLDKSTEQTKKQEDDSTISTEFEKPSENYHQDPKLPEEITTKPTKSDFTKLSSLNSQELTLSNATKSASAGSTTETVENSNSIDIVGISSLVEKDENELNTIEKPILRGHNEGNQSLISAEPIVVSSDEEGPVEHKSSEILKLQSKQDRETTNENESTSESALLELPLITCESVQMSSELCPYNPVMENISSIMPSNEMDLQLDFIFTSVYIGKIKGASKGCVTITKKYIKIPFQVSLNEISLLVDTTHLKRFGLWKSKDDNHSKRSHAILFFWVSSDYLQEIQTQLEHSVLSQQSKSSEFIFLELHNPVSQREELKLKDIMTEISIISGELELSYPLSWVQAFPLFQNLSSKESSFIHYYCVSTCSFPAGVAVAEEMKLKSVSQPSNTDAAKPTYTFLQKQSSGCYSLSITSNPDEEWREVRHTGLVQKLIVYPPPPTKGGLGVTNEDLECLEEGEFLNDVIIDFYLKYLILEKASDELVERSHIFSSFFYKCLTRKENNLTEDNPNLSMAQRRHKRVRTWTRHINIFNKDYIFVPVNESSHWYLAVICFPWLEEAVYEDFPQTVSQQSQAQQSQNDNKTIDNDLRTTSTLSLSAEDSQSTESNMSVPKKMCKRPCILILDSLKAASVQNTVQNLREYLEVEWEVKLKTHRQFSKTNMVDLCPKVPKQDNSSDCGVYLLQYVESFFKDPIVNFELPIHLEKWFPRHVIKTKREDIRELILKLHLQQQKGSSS

Caspase-3 = target: T4, Caspase-3 (Homo sapiens, UniProt P42574); type: functional;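 note: Dose-response selectivity test against caspase-3 for candidate inhibitors of sentrin-specific proteases (SENPs)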
T4 sequence (P42574 whole entry): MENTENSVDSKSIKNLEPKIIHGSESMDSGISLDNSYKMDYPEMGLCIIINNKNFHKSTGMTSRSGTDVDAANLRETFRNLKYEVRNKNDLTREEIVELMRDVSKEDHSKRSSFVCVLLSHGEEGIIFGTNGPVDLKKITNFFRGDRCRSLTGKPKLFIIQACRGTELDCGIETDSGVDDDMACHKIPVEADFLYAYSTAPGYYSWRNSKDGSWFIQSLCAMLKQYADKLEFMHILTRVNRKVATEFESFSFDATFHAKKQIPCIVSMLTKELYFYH

[4] = target: T5, Endoribonuclease toxin MazF (Escherichia coli K-12, UniProt P0AE70); experiment: fluorescent RNA oligo signal without MazF, dose response, counter-screen for MazEF activator project, biochemical, fluorescence, single-stranded RNase substrate (AID 588502); type: functional
T5 sequence (P0AE70 whole entry): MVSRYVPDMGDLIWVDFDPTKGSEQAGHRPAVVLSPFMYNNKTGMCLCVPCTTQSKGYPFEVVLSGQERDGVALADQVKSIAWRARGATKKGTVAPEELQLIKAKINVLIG

Protein skinhead-1 = target: T6, Protein skinhead-1 (Caenorhabditis elegans, UniProt P34707); type: functional
T6 sequence (P34707 whole entry): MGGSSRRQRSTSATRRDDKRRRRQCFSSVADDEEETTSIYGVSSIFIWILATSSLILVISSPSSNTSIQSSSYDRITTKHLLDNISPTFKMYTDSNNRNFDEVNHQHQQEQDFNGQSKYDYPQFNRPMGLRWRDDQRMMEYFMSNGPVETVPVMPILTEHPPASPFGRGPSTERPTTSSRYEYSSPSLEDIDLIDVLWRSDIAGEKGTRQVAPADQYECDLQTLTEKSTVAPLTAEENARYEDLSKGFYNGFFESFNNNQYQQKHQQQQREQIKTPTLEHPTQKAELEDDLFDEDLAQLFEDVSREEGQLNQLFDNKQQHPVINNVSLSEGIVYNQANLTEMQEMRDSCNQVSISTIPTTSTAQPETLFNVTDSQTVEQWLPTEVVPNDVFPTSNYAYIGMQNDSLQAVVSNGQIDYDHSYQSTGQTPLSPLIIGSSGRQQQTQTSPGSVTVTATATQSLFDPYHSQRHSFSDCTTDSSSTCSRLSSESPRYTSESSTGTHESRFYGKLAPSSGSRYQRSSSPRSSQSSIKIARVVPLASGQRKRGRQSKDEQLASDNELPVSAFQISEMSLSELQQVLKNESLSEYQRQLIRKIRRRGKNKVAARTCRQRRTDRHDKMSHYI

[5] = target: T5, Endoribonuclease toxin MazF; experiment: MazF toxin RNase activators, dose response, biochemical, fluorescence, single-stranded RNA substrate, uHTS hits (AID 588481); type: functional
[6] = target: T7, Type-1 angiotensin II receptor (Homo sapiens, UniProt P30556); experiment: AT1 receptor antagonists, dose response, selectivity assay for APJ receptor antagonist project, cell-based, uHTS hits (AID 463214); type: functional;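 note: antagonist potency against angiotensin II stimulated AT1 response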
T7 sequence (P30556 whole entry): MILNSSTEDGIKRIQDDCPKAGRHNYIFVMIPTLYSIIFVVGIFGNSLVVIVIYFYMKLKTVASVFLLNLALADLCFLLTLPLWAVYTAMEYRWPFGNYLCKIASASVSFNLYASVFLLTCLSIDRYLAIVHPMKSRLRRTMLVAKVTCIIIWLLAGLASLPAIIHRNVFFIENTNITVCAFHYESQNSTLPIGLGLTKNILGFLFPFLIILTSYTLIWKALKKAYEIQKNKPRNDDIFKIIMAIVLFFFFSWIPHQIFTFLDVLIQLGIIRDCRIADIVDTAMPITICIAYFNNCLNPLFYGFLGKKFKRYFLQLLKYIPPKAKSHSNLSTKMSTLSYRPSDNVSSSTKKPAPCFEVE

Beta-galactosidase = Beta-galactosidase (Escherichia coli, UniProt Q8VNN2); experiment: PubChem AID 485352; type: functional
Chain of Beta-galactosidase (Q8VNN2 whole entry): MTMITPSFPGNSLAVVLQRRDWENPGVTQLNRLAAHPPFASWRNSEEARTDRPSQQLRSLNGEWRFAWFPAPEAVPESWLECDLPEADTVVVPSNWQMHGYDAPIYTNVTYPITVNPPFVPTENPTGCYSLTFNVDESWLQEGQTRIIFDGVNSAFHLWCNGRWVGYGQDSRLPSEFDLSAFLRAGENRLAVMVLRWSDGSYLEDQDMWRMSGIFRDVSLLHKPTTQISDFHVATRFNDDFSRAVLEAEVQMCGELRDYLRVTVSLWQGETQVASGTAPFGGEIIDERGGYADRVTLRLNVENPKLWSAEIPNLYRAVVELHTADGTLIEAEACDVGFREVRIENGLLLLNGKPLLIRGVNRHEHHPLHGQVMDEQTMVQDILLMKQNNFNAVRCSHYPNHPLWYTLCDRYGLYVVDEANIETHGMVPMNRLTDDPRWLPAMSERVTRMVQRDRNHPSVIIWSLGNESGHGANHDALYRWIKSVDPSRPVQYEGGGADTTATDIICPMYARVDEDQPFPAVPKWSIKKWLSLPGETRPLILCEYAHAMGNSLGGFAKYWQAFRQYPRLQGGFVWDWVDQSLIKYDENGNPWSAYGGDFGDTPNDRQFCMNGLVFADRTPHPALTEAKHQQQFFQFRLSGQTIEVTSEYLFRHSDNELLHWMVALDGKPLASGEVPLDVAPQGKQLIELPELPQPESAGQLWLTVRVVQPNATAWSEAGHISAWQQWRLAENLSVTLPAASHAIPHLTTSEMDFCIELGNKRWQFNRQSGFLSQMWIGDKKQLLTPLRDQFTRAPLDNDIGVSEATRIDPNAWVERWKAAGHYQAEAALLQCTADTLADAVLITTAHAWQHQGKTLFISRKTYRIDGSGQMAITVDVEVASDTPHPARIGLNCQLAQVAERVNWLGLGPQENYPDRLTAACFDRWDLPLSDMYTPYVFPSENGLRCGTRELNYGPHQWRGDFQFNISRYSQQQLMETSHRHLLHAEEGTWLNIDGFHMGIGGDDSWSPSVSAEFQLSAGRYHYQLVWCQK

[7] = inhibitors of intracellular T. cruzi replication, confirmation, NIH3T3 host cells, beta-gal luminescence (AID 2044); type: functional, cell-based;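 note: intracellular parasites grown in NIH/3T3 mouse fibroblasts as host cells; luminescent beta-galactosidase reporter signal from transgenic T. cruzi replicating inside host cells; inhibitors lower the luminescence signal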
[8] = Luminescence Cell-Based Dose Retest to Confirm Inhibitors of Cancer Stem Cells. [Related pubchem assays (depositor defined):AID2717, AID2721]; type: functional; conditions: Homo sapiens
[9] = target: T8, Microphthalmia-associated transcription factor (Homo sapiens, UniProt O75030); experiment: TRPM1 promoter luciferase signal decrease, dose response, MITF inhibitor project, cell-based, SK-MEL-5, cherry-picked, set 3 (AID 493073); type: functional
T8 sequence (O75030 whole entry): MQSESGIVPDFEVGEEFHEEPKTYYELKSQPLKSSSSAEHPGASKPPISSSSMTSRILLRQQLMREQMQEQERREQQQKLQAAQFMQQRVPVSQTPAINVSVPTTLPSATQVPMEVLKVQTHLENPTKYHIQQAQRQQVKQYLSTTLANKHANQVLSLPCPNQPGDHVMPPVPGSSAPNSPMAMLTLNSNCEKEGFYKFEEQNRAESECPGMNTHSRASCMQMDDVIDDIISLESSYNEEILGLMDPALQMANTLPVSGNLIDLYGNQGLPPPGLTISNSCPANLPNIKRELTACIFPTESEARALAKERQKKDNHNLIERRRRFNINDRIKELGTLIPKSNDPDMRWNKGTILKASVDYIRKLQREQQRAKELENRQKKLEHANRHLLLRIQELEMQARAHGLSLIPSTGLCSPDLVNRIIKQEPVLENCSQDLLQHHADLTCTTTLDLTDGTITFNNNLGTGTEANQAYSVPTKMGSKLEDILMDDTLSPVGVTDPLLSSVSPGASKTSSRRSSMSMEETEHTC

CHO = experiment: cytotoxicity in TLR9-MyD88 CHO cells, dose response, cytotoxicity control for TLR9-MyD88 binding inhibitor project, cell-based, luminescence (AID 588339); type: functional, hamster; conditions: Cricetulus griseus;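 note: CHO cells stably coexpressing TLR9 and MyD88 fusions from primary screen; compound exposure lasted 48 hours before viability readout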
INS1 = experiment: beta cell apoptosis inhibitors, cytokine rescue, dose response, luminescence, retest (AID 449756); type: functional, cell-based; conditions: Rattus norvegicus;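 note: cell death triggered by IL-1 beta plus TNF-alpha plus IFN-gamma mixture; protective hits raise ATP signal compared with cytokine alone wells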
[10] = Fluorescence-based cell-based high throughput dose response assay for inhibitors of the interaction of nucleotide-binding oligomerization domain containing 2 (NOD2) and the receptor-interacting serine-threonine kinase 2 (RIPK2).; type: functional; conditions: Homo sapiens
Beta Lactamase = Beta Lactamase (Pseudomonas aeruginosa, UniProt Q932Y6); experiment: beta-lactamase reporter inhibitor potency, dose response, artefact control for TLR9-MyD88 binding inhibitor project, BLA reporter cells, FRET fluorescence (AID 588341); type: cell-based;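 note: cell based assay in CHO-K1 cells stably expressing beta-lactamase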
Chain of Beta Lactamase (Q932Y6 whole entry): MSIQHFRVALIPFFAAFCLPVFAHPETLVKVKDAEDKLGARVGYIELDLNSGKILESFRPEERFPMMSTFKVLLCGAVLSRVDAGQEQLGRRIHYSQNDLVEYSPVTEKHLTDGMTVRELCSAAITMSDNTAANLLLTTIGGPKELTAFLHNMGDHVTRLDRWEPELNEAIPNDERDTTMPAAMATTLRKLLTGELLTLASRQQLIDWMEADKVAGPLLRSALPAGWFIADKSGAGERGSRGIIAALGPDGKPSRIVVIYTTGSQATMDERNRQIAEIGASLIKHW

[11] = cytotoxicity toward NIH3T3 fibroblasts, dose response, counter-screen, cell-based, ATP luminescence, mouse fibroblasts (AID 2010); type: functional;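 note: cells exposed to compound for about 90 hours before reading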
[12] = target: T9, Corticotropin-releasing factor receptor 2/Corticotropin-releasing factor-binding protein (Homo sapiens, UniProt P24387+Q13324); experiment: activators of CRF receptor 2 with binding protein – uHTS hits, confirmation (AID 602473); type: functional; conditions: read-out: EC50_Mean
T9 sequence (Q13324 whole entry): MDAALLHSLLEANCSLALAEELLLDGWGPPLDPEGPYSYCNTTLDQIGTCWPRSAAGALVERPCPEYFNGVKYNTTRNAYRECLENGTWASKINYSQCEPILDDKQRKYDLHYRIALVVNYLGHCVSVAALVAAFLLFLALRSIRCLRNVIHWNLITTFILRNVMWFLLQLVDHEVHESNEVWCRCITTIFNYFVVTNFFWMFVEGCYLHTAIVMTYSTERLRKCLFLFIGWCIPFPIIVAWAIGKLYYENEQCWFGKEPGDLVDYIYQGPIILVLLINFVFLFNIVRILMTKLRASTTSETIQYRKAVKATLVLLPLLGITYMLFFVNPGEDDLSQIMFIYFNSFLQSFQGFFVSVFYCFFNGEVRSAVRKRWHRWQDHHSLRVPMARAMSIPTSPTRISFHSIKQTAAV
T9 sequence (P24387 whole entry): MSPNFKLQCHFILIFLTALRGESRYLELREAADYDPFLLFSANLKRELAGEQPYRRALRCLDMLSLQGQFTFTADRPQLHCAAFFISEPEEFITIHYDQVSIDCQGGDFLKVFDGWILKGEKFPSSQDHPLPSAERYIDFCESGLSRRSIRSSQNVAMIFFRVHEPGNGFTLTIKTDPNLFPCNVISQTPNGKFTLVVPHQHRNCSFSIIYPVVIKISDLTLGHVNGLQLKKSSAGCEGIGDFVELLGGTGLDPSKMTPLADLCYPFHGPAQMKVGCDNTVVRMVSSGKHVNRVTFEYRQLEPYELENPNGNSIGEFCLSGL

Cc1ccc2oc(-c3ccccc3)nc2c1
IC50 [1]: 7.6 µM (active) | IC50 [2]: 39.3 µM (active) | IC50 [3]: 5.32 µM (active) | IC50 (Caspase-3): 5.39 µM (active)

COC(=O)CSc1nc2cc(C)cc(C)c2cc1C#N
EC50 [4]: > 99 µM (inactive) | IC50 (Protein skinhead-1): > 100 µM (inactive) | EC50 [5]: > 99 µM (inactive)

CCn1c(=O)c([N+](=O)[O-])c(Cl)c2ccccc21
IC50 [6]: 2.22 µM (active) | EC50 (Beta-galactosidase): > 40 µM (inactive) | EC50 [7]: 1.89 µM (active) | AC50 [8]: 1.85 µM (active) | AC50 [9]: 7.21 µM (active) | IC50 (CHO): 1.03 µM (active) | AC50 (INS1): 5.02 µM (active) | IC50 [10]: 0.622 µM (active) | IC50 (Beta Lactamase): 28.6 µM (inactive) | EC50 [11]: 15 µM (active)

Cc1ccc(C)c2nc3sc(C(=O)N4CCCc5ccccc54)c(N)c3cc12
IC50 [6]: > 40 µM (not active) | EC50 (Beta-galactosidase): > 40 µM (inactive) | EC50 [7]: 1.56 µM (active) | EC50 [12]: 8.83 µM (active) | EC50 [11]: > 60 µM (not active)
